Source: US20060069132A1, “Azolecarboxamide herbicides” (priority 2004, published 2006)

Columns and labels:
lambsquarters = test: Test B pre-/postemergence herbicide test; type: in vivo, Chenopodium album; settings: for Lambsquarters plant response rating: postemergence
Outline: (§1)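 Response was scored visually 13 to 15 days after treatment against untreated greenhouse controls, 0 meaning no effect and 100 complete control. Formulations (solvent mixture plus surfactant) went onto soil after planting, onto foliage of 1- to 4-leaf plants, and onto 2-leaf plants in a flooded paddy set including rice and barnyardgrass.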

giant foxtail = test: Test B pre-/postemergence herbicide test; type: in vivo, Setaria faberi
Outline: as §1

[1] = tested on: small flower umbrella sedge; test: Test B flooded paddy test; type: in vivo, Cyperus difformis; settings: 1000 g ai/ha, visual rating, scale 0 to 100 (0 no effect, 100 complete control), 13 to 15 days
Outline: (§2)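 Postemergence plants were sprayed with formulated test chemicals at 2 to 18 cm height (1- to 4-leaf stage); paddy species were grown to the 2-leaf stage. After 13 to 15 days in a greenhouse, injury was rated visually against untreated controls on a 0–100 scale (0 = no effect, 100 = complete control).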

morningglory = test: Test B pre-/postemergence herbicide test; type: in vivo, Ipomoea coccinea; settings: for Morningglory plant response rating: postemergence
Outline: (§3)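 Seeds were planted and treated preemergence with compounds formulated in a non-phytotoxic solvent mixture containing surfactant, while plants at the 1- to 4-leaf stage (2 to 18 cm) received postemergence sprays. Flooded paddy plants were grown to the 2-leaf stage. After 13 to 15 days in a greenhouse, injury was visually rated 0–100 against untreated controls.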

corn = test: Test B pre-/postemergence herbicide test; type: in vivo, Zea mays
Outline: as §1

Surinam grass = test: Test B pre-/postemergence herbicide test; type: in vivo, Urochloa decumbens; settings: for Surinam Grass plant response rating: postemergence
Outline: as §1

wild oat = test: Test B postemergence herbicide test; type: in vivo, Avena fatua; settings: scale 0 (no effect) to 100 (complete control); for Oat, Wild plant response rating: postemergence, visual rating
Outline: (§4)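 Scale 0–100: zero equals no visible effect, 100 complete control, judged by eye relative to controls. Timing: 13 to 15 days in greenhouse post-treatment. Growth stage at spraying: two leaves (paddy) or one to four leaves, 2–18 cm (postemergence).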

large crabgrass = test: Test B pre-/postemergence herbicide test; type: in vivo, Digitaria sanguinalis
Outline: as §1

barnyardgrass [2] = test: Test B flooded paddy test; type: in vivo, Echinochloa crus-galli; settings: 1000 g ai/ha, visual rating, scale 0 to 100 (0 no effect, 100 complete control), 13 to 15 days
Outline: as §2

cocklebur = test: Test B pre-/postemergence herbicide test; type: in vivo, Xanthium strumarium
Outline: as §3

ducksalad = test: Test B flooded paddy test; type: in vivo, Heteranthera limosa; settings: 1000 g ai/ha, visual rating, scale 0 to 100 (0 no effect, 100 complete control), 13 to 15 days
Outline: as §2

pigweed = test: Test B pre-/postemergence herbicide test; type: in vivo, Amaranthus retroflexus; settings: for Pigweed plant response rating: postemergence
Outline: as §1

barnyardgrass [3] = test: Test B pre-/postemergence herbicide test; type: in vivo, Echinochloa crus-galli
Outline: as §3

rice = test: Test B flooded paddy test; type: in vivo, Oryza sativa; settings: 1000 g ai/ha, visual rating, scale 0 to 100 (0 no effect, 100 complete control), 13 to 15 days
Outline: as §2

blackgrass = test: Test B postemergence herbicide test; type: in vivo, Alopecurus myosuroides; settings: scale 0 (no effect) to 100 (complete control); for Blackgrass plant response rating: postemergence, visual rating
Outline: as §2

wheat = test: Test B postemergence herbicide test; type: in vivo, Triticum aestivum; parameters: key to Wheat plant response rating: 0 = no effect, 100 = complete control; settings: scale 0 (no effect) to 100 (complete control); for Wheat plant response rating: postemergence, visual rating
Outline: as §4

[4] = Postemergence, 500 g ai/ha, visual rating after 13 to 15 days, scale 0 (no effect) to 100 (complete control)
[5] = 125 g ai/ha, visual rating, scale 0 (no effect) to 100 (complete control)
[6] = preemergence, 125 g ai/ha, 0 to 100 scale, 0 is no effect, 100 is complete control
[7] = Preemergence, 500 g ai/ha, scale 0 to 100
[8] = postemergence, 125 g ai/ha, visual rating, scale 0 (no effect) to 100 (complete control)
[9] = Postemergence, 500 g ai/ha, visual rating after 13 to 15 days
[10] = 125 g ai/ha, 0 = no effect, 100 = complete control, preemergence
[11] = 500 g ai/ha, visual rating, 0 = no effect, 100 = complete control, preemergence
[12] = 500 g ai/ha, visual rating, scale 0 (no effect) to 100 (complete control)
[13] = postemergence, 500 g ai/ha, visual rating, scale 0 (no effect) to 100 (complete control)

SMILES: CCCN1CCc2c(NC(=O)c3cc(C(C)(C)C)nn3CC)cccc2C1=O [Compound 65]
- Plant response rating, Lambsquarters (lambsquarters; [4]): 70
- Lambsquarters plant response rating (lambsquarters; [5]): 70
- Plant response rating, Lambsquarters (lambsquarters; [6]): 80
- Plant response rating, Foxtail, Giant (giant foxtail; [4]): 20
- Foxtail, Giant plant response rating (giant foxtail; [7]): 80
- Foxtail, Giant plant response rating (giant foxtail; [8]): 10
- Plant response rating, Foxtail, Giant (giant foxtail; [6]): 20
- Sedge, Umbrella plant response rating [1]: 90
- Plant response rating, Morningglory (morningglory; [4]): 20
- Morningglory plant response rating (morningglory; [5]): 10
- Plant response rating, Morningglory (morningglory; [6]): 0
- Plant response rating, Corn (corn; [4]): 20
- Corn plant response rating (corn; [7]): 10
- Corn plant response rating (corn; [8]): 20
- Plant response rating, Corn (corn; [6]): 0
- Plant response rating, Surinam Grass (Surinam grass; [4]): 20
- Surinam Grass plant response rating (Surinam grass; [5]): 20
- Plant response rating, Surinam Grass (Surinam grass; [6]): 10
- Plant response rating, Oat, Wild (wild oat; [9]): 20
- Oat, Wild plant response rating (wild oat; 125 g ai/ha): 10
- Plant response rating, Crabgrass, Large (large crabgrass; [4]): 20
- Crabgrass, Large plant response rating (large crabgrass; [7]): 80
- Crabgrass, Large plant response rating (large crabgrass; [8]): 10
- Plant response rating, Crabgrass, Large (large crabgrass; [6]): 20
- Barnyardgrass plant response rating (barnyardgrass [2]): 80
- Plant response rating, Cocklebur (cocklebur; [4]): 80
- Cocklebur plant response rating (cocklebur; [7]): 0
- Cocklebur plant response rating (cocklebur; [8]): 60
- Plant response rating, Cocklebur (cocklebur; [6]): 0
- Ducksalad plant response rating (ducksalad): 90
- Plant response rating, Pigweed (pigweed; [4]): 60
- Pigweed plant response rating (pigweed; [5]): 40
- Plant response rating, Pigweed (pigweed; [6]): 90
- Plant response rating, Barnyardgrass (barnyardgrass [3]; [4]): 10
- Barnyardgrass plant response rating (barnyardgrass [3]; [7]): 90
- Barnyardgrass plant response rating (barnyardgrass [3]; [8]): 10
- Plant response rating, Barnyardgrass (barnyardgrass [3]; [6]): 50
- Rice plant response rating (rice): 50
- Plant response rating, Blackgrass (blackgrass; [9]): 10
- Blackgrass plant response rating (blackgrass; 125 g ai/ha): 10
- Plant response rating, Wheat (wheat; [9]): 10
- Wheat plant response rating (wheat; 125 g ai/ha): 0

SMILES: CCNC(=O)c1cccc(NC(=O)c2sc(C(C)(C)C)nc2CC)n1 [Compound 213]
- Lambsquarters plant response rating (0 to 100 scale) (lambsquarters; [10]): 30
- Plant response rating, Lambsquarters (lambsquarters; [11]): 100
- Lambsquarters plant response rating (lambsquarters; [5]): 0
- Lambsquarters plant response rating (lambsquarters; [12]): 40
- Foxtail, Giant plant response rating (0 to 100 scale) (giant foxtail; [10]): 20
- Plant response rating, Foxtail, Giant (giant foxtail; [11]): 90
- Foxtail, Giant plant response rating (giant foxtail; [8]): 0
- Foxtail, Giant plant response rating (giant foxtail; [13]): 30
- Sedge, Umbrella plant response rating [1]: 80
- Morningglory plant response rating (0 to 100 scale) (morningglory; [10]): 0
- Plant response rating, Morningglory (morningglory; [11]): 20
- Morningglory plant response rating (morningglory; [5]): 10
- Morningglory plant response rating (morningglory; [12]): 30
- Corn plant response rating (0 to 100 scale) (corn; [10]): 0
- Plant response rating, Corn (corn; [11]): 10
- Corn plant response rating (corn; [8]): 0
- Corn plant response rating (corn; [13]): 20
- Surinam Grass plant response rating (0 to 100 scale) (Surinam grass; [10]): 0
- Plant response rating, Surinam Grass (Surinam grass; [11]): 40
- Surinam Grass plant response rating (Surinam grass; [5]): 10
- Surinam Grass plant response rating (Surinam grass; [12]): 20
- Oat, Wild plant response rating (wild oat; 125 g ai/ha): 10
- Oat, Wild plant response rating (wild oat; 500 g ai/ha): 20
- Crabgrass, Large plant response rating (0 to 100 scale) (large crabgrass; [10]): 10
- Plant response rating, Crabgrass, Large (large crabgrass; [11]): 70
- Crabgrass, Large plant response rating (large crabgrass; [8]): 0
- Crabgrass, Large plant response rating (large crabgrass; [13]): 30
- Barnyardgrass plant response rating (barnyardgrass [2]): 60
- Cocklebur plant response rating (0 to 100 scale) (cocklebur; [10]): 0
- Plant response rating, Cocklebur (cocklebur; [11]): 0
- Cocklebur plant response rating (cocklebur; [8]): 0
- Cocklebur plant response rating (cocklebur; [13]): 70
- Ducksalad plant response rating (ducksalad): 70
- Pigweed plant response rating (0 to 100 scale) (pigweed; [10]): 30
- Plant response rating, Pigweed (pigweed; [11]): 100
- Pigweed plant response rating (pigweed; [5]): 0
- Pigweed plant response rating (pigweed; [12]): 20
- Barnyardgrass plant response rating (0 to 100 scale) (barnyardgrass [3]; [10]): 10
- Plant response rating, Barnyardgrass (barnyardgrass [3]; [11]): 80
- Barnyardgrass plant response rating (barnyardgrass [3]; [8]): 0
- Barnyardgrass plant response rating (barnyardgrass [3]; [13]): 50
- Rice plant response rating (rice): 40
- Blackgrass plant response rating (blackgrass; 125 g ai/ha): 20
- Blackgrass plant response rating (blackgrass; 500 g ai/ha): 40
- Wheat plant response rating (wheat; 125 g ai/ha): 0
- Wheat plant response rating (wheat; 500 g ai/ha): 30
